Test results: patent US4966900A, “Cephalosporin β-lactam compound and medicinal composition” (priority 1986, dated 1990)
Values after ≈ are worked out from the molar mass of the structure shown. Structures can show the parent of a compound that is named as a salt. Where two headings read alike, the source gives them in different places. Each block holds one compound with its values, some of them ahead of it.

What was measured:
C. freundii 1R524 = experiment: MIC
C. freundii 5D60-1 = experiment: MIC
P. cepacia OF189 = experiment: MIC; settings: Burkholderia cepacia, OF189, P. cepacia OF189
P. aeruginosa 5D58-1 = experiment: MIC; settings: Pseudomonas aeruginosa, 5D581, P. aeruginosa 5D58-1
S. aureus Smith = experiment: MIC; settings: Staphylococcus aureus
E. cloacae 908RN = experiment: MIC; settings: Enterobacter cloacae
C. freundii 1R527 = experiment: MIC
C. freundii GN7391 = experiment: MIC; settings: Citrobacter freundii, GN7391, C. freundii GN7391
K. pneumoniae 4at521 = experiment: MIC
C. freundii 1U692 = experiment: MIC
in vivo = experiment: in vivo; design: species or system Macaco; settings: monkey, 20 mg/kg
Method: Each of 20 mg/kg of the compounds obtained in Example 2, Example 25 and Example 28 was administered parenterally to Macaco and the half-time in blood was measured.
The concentrations of the compounds were measured according to HPLC method. Novapack C18 or Microbondapack C18 (trade name, produced by Waters Co.) was used as a column. Further, cefpiramide was used as a control drug.

E. coli ML4707 = experiment: MIC; settings: Escherichia coli, ML4707, E. coli ML4707
E. cloacae 1Y247 = experiment: MIC; type: cell-based
Method: (§1) The minimum inhibition concentrations (MIC) of the compounds obtained in the respective examples described above were measured according to the standard method of Japanese Chemotherapy Association.

C. freundii 1U589 = experiment: MIC
P. vulgaris GN7919 = experiment: MIC
E. cloacae 5D63-2 = experiment: MIC
E. cloacae 1V25 = experiment: MIC; settings: Enterobacter cloacae
P. aeruginosa GN10362 = experiment: MIC
S. marcescens GN10857 = experiment: MIC; settings: Serratia marcescens, GN10857, S. marcescens GN10857
E. colacae GN7471 = experiment: MIC
P. aeruginosa 4au542 = experiment: MIC; settings: Pseudomonas aeruginosa, 4AU542, P. aeruginosa 4au542
P. maltophilia OF247 = experiment: MIC; settings: Stenotrophomonas maltophilia
C. freundii 1R526 = experiment: MIC
E. cloacae 5D52-2 = experiment: MIC
A. xylosoxidans OF1001 = experiment: MIC; type: cell-based; settings: Achromobacter xylosoxidans, Table 2, sodium salt
Method: (§2) The minimum inhibition concentrations (MIC) of the compounds obtained in Example 1 and Example 2 were measured according to the standard method of Japanese Chemotherapy Association.

A. calcoaceticu OF1063 = experiment: MIC; type: cell-based; settings: Table 2, sodium salt
Method: as §2

E. coli NIHJ JC-2 = experiment: MIC; type: cell-based; settings: Escherichia coli, NIHJJC2, Table 2, sodium salt
Method: as §2

C. freundii 1R523 = experiment: MIC
E. coli GN5482 = experiment: MIC; settings: Escherichia coli, GN5482, E. coli GN5482
S. aureus IAA498 = experiment: MIC; type: cell-based; settings: Staphylococcus aureus, Table 5
Method: as §1

[1] = E. cloacae 908RN, Table 3, sodium salt
[2] = E. colacae 908RN, Table 2, sodium salt
[3] = Enterobacter cloacae, Table 3, sodium salt, read-out: MIC
[4] = Pseudomonas aeruginosa, GN10362

- MIC (C. freundii 1R524; Citrobacter freundii, 1R524): 0.78 µg/mL (≈ 0.942 µM)
- MIC (C. freundii 5D60-1; Citrobacter freundii, 5D601): 1.56 µg/mL (≈ 1.88 µM)
- MIC (P. cepacia OF189; Table 2, sodium salt): < 0.006 µg/mL
- MIC (P. aeruginosa 5D58-1; Table 2, sodium salt): 0.39 µg/mL
- MIC (S. aureus Smith; Table 2, sodium salt): 6.25 µg/mL
- MIC (E. cloacae 908RN; [1]): 3.13 µg/mL
- MIC (E. cloacae 908RN; [2]): 1.56 µg/mL
- MIC (C. freundii 1R527; Citrobacter freundii, 1R527): 0.78 µg/mL (≈ 0.942 µM)
- MIC (C. freundii GN7391; Table 2, sodium salt): 12.5 µg/mL
- MIC (C. freundii GN7391; Table 3, sodium salt): 12.5 µg/mL
- MIC (K. pneumoniae 4at521; Klebsiella pneumoniae, 4AT521): 0.012 µg/mL (≈ 0.0145 µM)
- MIC (C. freundii 1U692; Citrobacter freundii, 1U692): 1.56 µg/mL (≈ 1.88 µM)
- half-life (in vivo): 5.3 h
- MIC (E. coli ML4707; Table 2, sodium salt): 0.01 µg/mL
- MIC (E. cloacae 1Y247; [3]): 6.25 µg/mL
- MIC (C. freundii 1U589; Citrobacter freundii, 1U589): 0.78 µg/mL (≈ 0.942 µM)
- MIC (P. vulgaris GN7919; Proteus vulgaris, GN7919): 0.78 µg/mL (≈ 0.942 µM)
- MIC (E. cloacae 5D63-2; Enterobacter cloacae, 5D632): 0.78 µg/mL (≈ 0.942 µM)
- MIC (E. cloacae 1V25): 6.25 µg/mL (≈ 7.55 µM)
- MIC (P. aeruginosa GN10362; [4]): 0.2 µg/mL (≈ 0.242 µM)
- MIC (S. marcescens GN10857; Table 2, sodium salt): 0.2 µg/mL
- MIC (E. colacae GN7471; Table 2, sodium salt): 6.25 µg/mL
- MIC (P. aeruginosa 4au542; Table 2, sodium salt): 0.2 µg/mL
- MIC (P. maltophilia OF247; Table 2, sodium salt): 0.2 µg/mL
- MIC (C. freundii 1R526; Citrobacter freundii, 1R526): 0.78 µg/mL (≈ 0.942 µM)
- MIC (E. cloacae 5D52-2; Enterobacter cloacae, 5D522): 0.2 µg/mL (≈ 0.242 µM)
- MIC (A. xylosoxidans OF1001): 0.78 µg/mL
- MIC (A. calcoaceticu OF1063): 3.13 µg/mL
- MIC (E. coli NIHJ JC-2): 0.1 µg/mL
- MIC (C. freundii 1R523; Citrobacter freundii, 1R523): 1.56 µg/mL (≈ 1.88 µM)
- MIC (E. coli GN5482; Table 2, sodium salt): 0.1 µg/mL
Structure (SMILES): Cc1cc(SCC2=C(C(=O)O)N3C(=O)C(NC(=O)C(=NOC(C)(C)C(=O)NNC(=O)c4ccc(O)c(O)c4)c4csc(N)n4)C3SC2)n2nc(C(=O)O)nc2n1 (stereo not drawn) [Example 2]

- MIC (C. freundii 1R524; C. freundii 1R524, Table 6): 0.78 µg/mL
- MIC (C. freundii 1R524; Citrobacter freundii, 1R524): 0.78 µg/mL
- MIC (C. freundii 5D60-1; C. freundii 5D60-1, Table 6): 3.13 µg/mL
- MIC (C. freundii 5D60-1; Citrobacter freundii, 5D601): 3.13 µg/mL
- MIC (P. cepacia OF189; Table 2, sodium salt): 0.025 µg/mL
- MIC (P. cepacia OF189; Table 5): 0.012 µg/mL
- MIC (P. aeruginosa 5D58-1; Table 2, sodium salt): 0.1 µg/mL
- MIC (P. aeruginosa 5D58-1; Table 5): 0.2 µg/mL
- MIC (S. aureus Smith; Table 2, sodium salt): 0.78 µg/mL
- MIC (S. aureus Smith; Table 5): 3.13 µg/mL
- MIC (E. cloacae 908RN; [1]): 3.13 µg/mL
- MIC (E. cloacae 908RN; E. cloacae 908RN, Table 6): 3.13 µg/mL
- MIC (E. cloacae 908RN; [2]): 3.13 µg/mL
- MIC (E. cloacae 908RN; E. colacae 908RN, Table 5): 3.13 µg/mL
- MIC (C. freundii 1R527; C. freundii 1R527, Table 6): 0.78 µg/mL
- MIC (C. freundii 1R527; Citrobacter freundii, 1R527): 0.78 µg/mL
- MIC (C. freundii GN7391; Table 2, sodium salt): 12.5 µg/mL
- MIC (C. freundii GN7391; Table 3, sodium salt): 25 µg/mL
- MIC (C. freundii GN7391; Table 5): 6.25 µg/mL
- MIC (C. freundii GN7391; Table 6): 25 µg/mL
- MIC (K. pneumoniae 4at521; K. pneumoniae 4at521, Table 5): 0.012 µg/mL
- MIC (K. pneumoniae 4at521; Klebsiella pneumoniae, 4AT521): 0.012 µg/mL
- MIC (C. freundii 1U692; C. freundii 1U692, Table 6): 3.13 µg/mL
- MIC (C. freundii 1U692; Citrobacter freundii, 1U692): 3.13 µg/mL
- MIC (E. coli ML4707; Table 2, sodium salt): 0.012 µg/mL
- MIC (E. coli ML4707; Table 5): < 0.006 µg/mL
- MIC (E. cloacae 1Y247; [3]): 25 µg/mL
- MIC (E. cloacae 1Y247; Table 6): 25 µg/mL
- MIC (S. aureus IAA498): 6.25 µg/mL
- MIC (C. freundii 1U589; C. freundii 1U589, Table 6): 1.56 µg/mL
- MIC (C. freundii 1U589; Citrobacter freundii, 1U589): 1.56 µg/mL
- MIC (P. vulgaris GN7919; P. vulgaris Gn7919, Table 5): 0.78 µg/mL
- MIC (P. vulgaris GN7919; Proteus vulgaris, GN7919): 0.78 µg/mL
- MIC (E. cloacae 5D63-2; E. cloacae 5D63-2, Table 6): 3.13 µg/mL
- MIC (E. cloacae 5D63-2; Enterobacter cloacae, 5D632): 3.13 µg/mL
- MIC (P. aeruginosa GN10362; P. aeruginosa GN10362, Table 5): 0.1 µg/mL
- MIC (P. aeruginosa GN10362; [4]): 0.1 µg/mL
- MIC (S. marcescens GN10857; Table 2, sodium salt): 1.56 µg/mL
- MIC (S. marcescens GN10857; Table 5): 0.39 µg/mL
- MIC (E. colacae GN7471; Table 2, sodium salt): 3.13 µg/mL
- MIC (E. colacae GN7471; Table 5): 1.56 µg/mL
- MIC (P. aeruginosa 4au542; Table 2, sodium salt): 0.1 µg/mL
- MIC (P. aeruginosa 4au542; Table 5): 0.2 µg/mL
- MIC (P. maltophilia OF247; Table 2, sodium salt): 0.78 µg/mL
- MIC (P. maltophilia OF247; Table 5): 0.39 µg/mL
- MIC (C. freundii 1R526; C. freundii 1R526, Table 6): 1.56 µg/mL
- MIC (C. freundii 1R526; Citrobacter freundii, 1R526): 1.56 µg/mL
- MIC (E. cloacae 5D52-2; E. cloacae 5D52-2, Table 6): 0.2 µg/mL
- MIC (E. cloacae 5D52-2; Enterobacter cloacae, 5D522): 0.2 µg/mL
- MIC (A. xylosoxidans OF1001): 0.78 µg/mL
- MIC (A. calcoaceticu OF1063): 12.5 µg/mL
- MIC (E. coli NIHJ JC-2): 0.1 µg/mL
- MIC (C. freundii 1R523; C. freundii 1R523, Table 6): 0.78 µg/mL
- MIC (C. freundii 1R523; Citrobacter freundii, 1R523): 0.78 µg/mL
- MIC (E. coli GN5482; Table 2, sodium salt): 0.1 µg/mL
- MIC (E. coli GN5482; Table 5): 0.012 µg/mL
Structure (SMILES): Cc1cc(SCC2=C(C(=O)O)N3C(=O)C(NC(=O)C(=NOC(C)(C)C(=O)NNC(=O)c4ccc(O)c(O)c4)c4csc(N)n4)C3SC2)n2ncnc2n1 (stereo not drawn) [Example 12, 7-{2-[2-Amino-1,3-thiazol-4-yl]-2-[1-(3-(3,4-dihydroxybenzoyl)carbazoyl)-1-methylethoxyimino]acetamide}-3-[(5-methyl-s-triazolo[1,5-a]-pyrimidin-7-yl)thiomethyl]-3-cephem-4-carboxylic acid.hydrochloride]
